The results in this text go back to patent US20190374533A1, “COMPOUNDS AND METHODS FOR INHIBITING NHE-MEDIATED ANTIPORT IN THE TREATMENT OF DISORDERS ASSOCIATED WITH FLUID RETENTION OR SALT OVERLOAD AND GASTROINTESTINAL TRACT DISORDERS” (Ardelyx, Inc., priority 2008, published 2019).

The target in assay [1] is T1, human NHE3 (Homo sapiens, UniProt P48764).
T1 construct: host or cells: PS120 fibroblasts
T1 sequence (P48764 26-834): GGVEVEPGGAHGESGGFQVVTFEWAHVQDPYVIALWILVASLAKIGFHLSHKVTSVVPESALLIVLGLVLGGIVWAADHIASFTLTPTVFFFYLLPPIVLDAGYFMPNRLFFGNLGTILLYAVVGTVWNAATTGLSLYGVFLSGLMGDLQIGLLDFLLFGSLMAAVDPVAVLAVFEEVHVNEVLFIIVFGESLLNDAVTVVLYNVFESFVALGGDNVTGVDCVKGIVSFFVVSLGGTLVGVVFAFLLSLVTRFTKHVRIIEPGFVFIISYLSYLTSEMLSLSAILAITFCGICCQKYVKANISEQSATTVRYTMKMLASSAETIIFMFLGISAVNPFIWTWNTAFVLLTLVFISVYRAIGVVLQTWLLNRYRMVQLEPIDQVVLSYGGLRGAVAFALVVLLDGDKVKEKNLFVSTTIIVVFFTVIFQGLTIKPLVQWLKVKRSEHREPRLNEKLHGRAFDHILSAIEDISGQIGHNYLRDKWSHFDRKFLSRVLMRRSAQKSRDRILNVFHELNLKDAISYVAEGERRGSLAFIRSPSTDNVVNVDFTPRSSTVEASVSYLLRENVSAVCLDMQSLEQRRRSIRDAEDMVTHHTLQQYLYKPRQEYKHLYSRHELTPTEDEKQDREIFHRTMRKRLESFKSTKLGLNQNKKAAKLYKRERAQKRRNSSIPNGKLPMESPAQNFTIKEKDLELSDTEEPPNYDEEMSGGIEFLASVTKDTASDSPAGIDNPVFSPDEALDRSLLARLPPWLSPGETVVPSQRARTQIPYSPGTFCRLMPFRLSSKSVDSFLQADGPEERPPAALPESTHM
T1 sequence (Q99653 2-195 partner limits assumed): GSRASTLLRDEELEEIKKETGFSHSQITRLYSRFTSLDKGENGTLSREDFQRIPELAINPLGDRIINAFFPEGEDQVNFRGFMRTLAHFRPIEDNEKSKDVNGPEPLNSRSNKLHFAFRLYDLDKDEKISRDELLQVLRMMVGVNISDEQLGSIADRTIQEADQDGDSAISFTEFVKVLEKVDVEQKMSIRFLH
The assay is described as follows: Cell-based assay of NHE-3 activity (pre-incubation inhibition), human. The conditions noted are these: human Preincubation assay; for pIC50: PS120 fibroblasts expressing human NHE3 and NHERF2, 0-30 μM test compound. The method, then: Rat and human NHE-3-mediated Na^+-dependent H^+ antiport was measured using a modification of the pH sensitive dye method originally reported by Paradiso (Proc. Natl. Acad. Sci. USA. (1984) 81(23): 7436-7440). PS120 fibroblasts stably expressing human NHE3 and NHERF2 were obtained from Mark Donowitz (Baltimore, Md.). Opossum kidney (OK) cells were obtained from the ATCC and propagated per their instructions. The rat NHE-3 gene (GenBank M85300) was introduced into OK cells via electroporation, and cells were seeded into 96 well plates and grown overnight. Medium was aspirated from the wells then incubated for 30 min at 37° C. with NH4Cl-HEPES buffer (20 mM NH4Cl, 80 mM NaCl, 50 mM HEPES, 5 mM KCl, 2 mM CaCl2, 1 mM MgCl2, pH 7.4) containing 5 μM BCECF-AM. Cells were washed once with Ammonium free, Na^+-free HEPES (100 mM choline, 50 mM HEPES, 10 mM glucose, 5 mM KCl, 2 mM CaCl2, 1 mM MgCl2, pH 7.4) and incubated in the same buffer for 10 minutes at room temperature to lower intracellular pH with 0-30 μM test compound. […] Changes in intracellular pH were monitored using a FLIPR Tetra® (Molecular Devices, Sunnyvale, Calif.) by excitation at λex 439 to 505 nm, and measuring BCECF fluorescence at λem 538 nm. The initial rate of the fluorescence ratio change was used as a measure of NHE-mediated Na^+/H^+ activity, and reported as the change in fluorescence ratio per minute.

In assay [2] the target is T1, human NHE3. As to the kind of experiment: Cell-based assay of NHE-3 activity (persistent inhibition), human. The settings on record: human Persistence assay; for pIC50: 60 min incubation, washout, recovery initiated 10 min after washout. The protocol:
The ability of compounds to inhibit human and rat NHE-3-mediated Na^+-dependent H^+ antiport after application and washout was measured using a modification of the pH sensitive dye method described above. PS120 fibroblasts stably expressing human NHE3 and NHERF2 were obtained from Mark Donowitz (Baltimore, Md.). Opossum kidney (OK) cells were obtained from the ATCC and propagated per their instructions. The rat NHE-3 gene was introduced into OK cells via electroporation, and cells were seeded into 96 well plates and grown overnight. Medium was aspirated from the wells, cells were washed once with NaCl-HEPES buffer (100 mM NaCl, 50 mM HEPES, 10 mM glucose, 5 mM KCl, 2 mM CaCl2, 1 mM MgCl2, pH 7.4), then overlayed with NaCl-HEPES buffer containing 0-30 μM test compound. After a 60 min incubation at room temperature, the test drug containing buffer was aspirated from the cells. Following aspiration, cells were washed once with NaCl-HEPES buffer without drug, then incubated for 30 min at 37° C. with NH4Cl-HEPES buffer (20 mM NH4Cl, 80 mM NaCl, 50 mM HEPES, 5 mM KCl, 2 mM CaCl2, 1 mM MgCl2, pH 7.4) containing 5 μM BCECF-AM. Cells were washed once with Ammonium free, Na^+-free HEPES (100 mM choline, 50 mM HEPES, 10 mM glucose, 5 mM KCl, 2 mM CaCl2. 1 mM MgCl2. pH 7.4) and incubated in the same buffer for 10 minutes at room temperature to lower intracellular pH. NHE-3-mediated recovery of neutral intracellular pH was initiated (10 min after compound washout) by addition of Na-HEPES buffer. […] Changes in intracellular pH were monitored using a FLIPR Tetra® (Molecular Devices, Sunnyvale, Calif.) by excitation at λex 439 to 505 nm, and measuring BCECF fluorescence at λem 538 nm. The initial rate of the fluorescence ratio change was used as a measure of NHE-mediated Na^+/H^+ activity, and reported as the change in fluorescence ratio per minute.

pIC50: −log10 of the molar value. Where a name gives a salt, the structure may show the parent alone.

`CN1Cc2c(Cl)cc(Cl)cc2[C@H](c2cccc(S(=O)(=O)NCCOCCOCCNC(=O)Nc3ccc(NC(=O)NCCOCCOCCNS(=O)(=O)c4cccc([C@@H]5CN(C)Cc6c(Cl)cc(Cl)cc65)c4)cc3)c2)C1` (single isomer, unassigned) [Example 203, (S or R)—N,N′-(2,2′-(2,2′-(2,2′-(1,4-phenylenebis(azanediyl))bis(oxomethylene)bis(azanediyl)bis(ethane-2,1-diyl))bis(oxy)bis(ethane-2,1-diyl))bis(oxy)bis(ethane-2,1-diyl))bis(3-((S or R)-6,8-dichloro-2-methyl-1,2,3,4-tetrahydroisoquinolin-4-yl)benzenesulfonamide) bis-hydrochloride salt]: the “% inhibition” value in assay [1] and in assay [2] was “C (>70%)” throughout. In addition, the pIC50 in assay [1] and in assay [2] was over 7.00 throughout.

In the case of `CN1Cc2c(Cl)cc(Cl)cc2[C@H](c2cccc(S(=O)(=O)NCCOCCOCCNC(=O)NCCCCNC(=O)NCCOCCOCCNS(=O)(=O)c3cccc([C@@H]4CN(C)Cc5c(Cl)cc(Cl)cc54)c3)c2)C1` (single isomer, unassigned) [Example 202, (S or R)—N,N′-(10,17-dioxo-3,6,21,24-tetraoxa-9,11,16,18-tetraazahexacosane-1,26-diyl)bis(3-((S)-6,8-dichloro-2-methyl-1,2,3,4-tetrahydroisoquinolin-4-yl)benzenesulfonamide) bis-hydrochloride salt], in assay [1], the “% inhibition” value is given as “C (>70%)” and the pIC50 was over 7.00. For the same molecule, in assay [2], the “% inhibition” value was “C (>70%)” and the pIC50 was over 7.00.
